Data reported in PMC10039899, “Integrative proteogenomic characterization of early esophageal cancer” (Nature Communications, 2023).

Biological target: T1, phosphoglycerate kinase 1 (PGK1) (Homo sapiens, UniProt P00558)
T1 construct: Flag-tagged PGK1, whole-length cDNA, purified from HEK293T cells
T1 sequence (P00558 2-417): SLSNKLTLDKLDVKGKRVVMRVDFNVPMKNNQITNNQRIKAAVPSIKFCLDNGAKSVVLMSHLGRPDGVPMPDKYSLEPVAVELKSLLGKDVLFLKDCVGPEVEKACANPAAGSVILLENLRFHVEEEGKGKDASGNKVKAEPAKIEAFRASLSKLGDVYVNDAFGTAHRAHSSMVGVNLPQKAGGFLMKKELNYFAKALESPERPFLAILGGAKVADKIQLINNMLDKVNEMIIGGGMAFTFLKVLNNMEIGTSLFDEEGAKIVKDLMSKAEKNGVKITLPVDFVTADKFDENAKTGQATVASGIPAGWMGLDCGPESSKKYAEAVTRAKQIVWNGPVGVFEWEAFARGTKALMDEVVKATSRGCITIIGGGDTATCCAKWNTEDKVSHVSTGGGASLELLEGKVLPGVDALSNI
Assay: in vitro enzymatic assay of purified Flag-PGK1, GAPDH-coupled, NADH decrease at […] nm
Type: biochemical

Molecule `Nc1ccn([C@@H]2O[C@H](CO)[C@@H](O)C2(F)F)c(=O)n1` [gemcitabine] has an IC50 of 16.3 nM.
